From PubChem BioAssay (NCI)
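Briefly, cells in 96-well plates were exposed to five compound concentrations for 48 h, and endpoints were estimated by linear interpolation. TGI marks complete inhibition of growth.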

What was measured:
Test in all cases: NCI anticancer screen, dose series, 48 h
XF 498 CNS = tested on: XF 498 CNS
HCT-15 colon = tested on: HCT-15 colon
UACC-257 melanoma = tested on: UACC-257 melanoma
MALME-3M melanoma = tested on: MALME-3M melanoma
A498 renal = tested on: A498 renal
KM12 colon = tested on: KM12 colon
HT29 colon = tested on: HT29 colon
SN12C renal = tested on: SN12C renal
SK-MEL-5 melanoma = tested on: SK-MEL-5 melanoma
NCI-H522 lung = tested on: NCI-H522 lung
NCI-H23 lung = tested on: NCI-H23 lung
HCC-2998 colon = tested on: HCC-2998 colon
DLD-1 colon = tested on: DLD-1 colon
RXF 393 renal = tested on: RXF 393 renal
SR leukemia = tested on: SR leukemia
M14 melanoma = tested on: M14 melanoma
SK-MEL-28 melanoma = tested on: SK-MEL-28 melanoma
OVCAR-8 ovarian = tested on: OVCAR-8 ovarian
SK-OV-3 ovarian = tested on: SK-OV-3 ovarian
OVCAR-4 ovarian = tested on: OVCAR-4 ovarian
K-562 leukemia = tested on: K-562 leukemia
SF-268 CNS = tested on: SF-268 CNS
SW-620 colon = tested on: SW-620 colon
CAKI-1 renal = tested on: CAKI-1 renal
M19-MEL melanoma = tested on: M19-MEL melanoma
UO-31 renal = tested on: UO-31 renal
NCI-H226 lung = tested on: NCI-H226 lung
SNB-19 CNS = tested on: SNB-19 CNS
LXFL 529 NSCLC = tested on: LXFL 529 NSCLC
786-0 renal = tested on: 786-0 renal
COLO 205 colon = tested on: COLO 205 colon
U251 CNS = tested on: U251 CNS
TK-10 renal = tested on: TK-10 renal
KM20L2 colon = tested on: KM20L2 colon
SNB-78 CNS = tested on: SNB-78 CNS
OVCAR-3 ovarian = tested on: OVCAR-3 ovarian
EKVX NSCLC = tested on: EKVX NSCLC
NCI-H460 lung = tested on: NCI-H460 lung
HOP-92 NSCLC = tested on: HOP-92 NSCLC
IGROV1 ovarian = tested on: IGROV1 ovarian
SF-539 CNS = tested on: SF-539 CNS
HOP-62 NSCLC = tested on: HOP-62 NSCLC
SF-295 CNS = tested on: SF-295 CNS
RPMI-8226 leukemia = tested on: RPMI-8226 leukemia
ACHN renal = tested on: ACHN renal
DMS 114 small cell lung = tested on: DMS 114 small cell lung
OVCAR-5 ovarian = tested on: OVCAR-5 ovarian
A549 NSCLC = tested on: A549 NSCLC
HOP-18 NSCLC = tested on: HOP-18 NSCLC
SNB-75 CNS = tested on: SNB-75 CNS
MOLT-4 leukemia = tested on: MOLT-4 leukemia
SK-MEL-2 melanoma = tested on: SK-MEL-2 melanoma
UACC-62 melanoma = tested on: UACC-62 melanoma
HL-60(TB) leukemia = tested on: HL-60(TB) leukemia
LOX IMVI melanoma = tested on: LOX IMVI melanoma
DMS 273 small cell lung = tested on: DMS 273 small cell lung
CCRF-CEM leukemia = tested on: CCRF-CEM leukemia
HCT-116 colon = tested on: HCT-116 colon

SMILES: COc1cc2c(cc1OC)C(Cc1ccc(Oc3cc(CC4c5cc(OC)c(OC)cc5CCN4C)ccc3O)cc1)N(C)CC2 (stereo unspecified)
- TGI (XF 498 CNS): 34.2 µM
- TGI (HCT-15 colon): 32 µM
- TGI (UACC-257 melanoma): 32 µM
- TGI (MALME-3M melanoma): 34.7 µM
- TGI (A498 renal): 49.1 µM
- TGI (KM12 colon): 70.7 µM
- TGI (HT29 colon): 28.9 µM
- TGI (SN12C renal): > 100 µM
- TGI (SK-MEL-5 melanoma): 29.1 µM
- TGI (NCI-H522 lung): 25 µM
- TGI (NCI-H23 lung): > 100 µM
- TGI (HCC-2998 colon): 28.1 µM
- TGI (DLD-1 colon): 38.7 µM
- TGI (RXF 393 renal): 29.4 µM
- TGI (SR leukemia): 24.1 µM
- TGI (M14 melanoma): 28.7 µM
- TGI (SK-MEL-28 melanoma): 30.2 µM
- TGI (OVCAR-8 ovarian): > 100 µM
- TGI (SK-OV-3 ovarian): > 100 µM
- TGI (OVCAR-4 ovarian): 54.7 µM
- TGI (K-562 leukemia): 29.3 µM
- TGI (SF-268 CNS): 28.7 µM
- TGI (SW-620 colon): 35.5 µM
- TGI (CAKI-1 renal): 73.3 µM
- TGI (M19-MEL melanoma): 39 µM
- TGI (UO-31 renal): 28.3 µM
- TGI (NCI-H226 lung): 57.5 µM
- TGI (SNB-19 CNS): > 100 µM
- TGI (LXFL 529 NSCLC): 28.5 µM
- TGI (786-0 renal): 27.1 µM
- TGI (COLO 205 colon): 23.8 µM
- TGI (U251 CNS): 38.2 µM
- TGI (TK-10 renal): > 100 µM
- TGI (KM20L2 colon): 34.3 µM
- TGI (SNB-78 CNS): > 100 µM
- TGI (OVCAR-3 ovarian): 50.1 µM
- TGI (EKVX NSCLC): > 100 µM
- TGI (NCI-H460 lung): 80.4 µM
- TGI (HOP-92 NSCLC): 55.9 µM
- TGI (IGROV1 ovarian): 56.5 µM
- TGI (SF-539 CNS): 30.6 µM
- TGI (HOP-62 NSCLC): 57.4 µM
- TGI (SF-295 CNS): 47.1 µM
- TGI (RPMI-8226 leukemia): 51.4 µM
- TGI (ACHN renal): 35.2 µM
- TGI (DMS 114 small cell lung): 30.9 µM
- TGI (OVCAR-5 ovarian): > 100 µM
- TGI (A549 NSCLC): > 100 µM
- TGI (HOP-18 NSCLC): 76.6 µM
- TGI (SNB-75 CNS): 31.6 µM
- TGI (MOLT-4 leukemia): 41.5 µM
- TGI (SK-MEL-2 melanoma): 31 µM
- TGI (UACC-62 melanoma): 32.4 µM
- TGI (HL-60(TB) leukemia): 30.4 µM
- TGI (LOX IMVI melanoma): 32.6 µM
- TGI (DMS 273 small cell lung): 47.8 µM
- TGI (CCRF-CEM leukemia): 58.4 µM
- TGI (HCT-116 colon): 22 µM

SMILES: COCCCCCC(=O)CP(=O)(OC)OC
- TGI (XF 498 CNS): > 100 µM
- TGI (HCT-15 colon): > 100 µM
- TGI (UACC-257 melanoma): > 100 µM
- TGI (MALME-3M melanoma): > 100 µM
- TGI (A498 renal): > 100 µM
- TGI (KM12 colon): > 100 µM
- TGI (HT29 colon): > 100 µM
- TGI (SN12C renal): > 100 µM
- TGI (SK-MEL-5 melanoma): > 100 µM
- TGI (NCI-H522 lung): > 100 µM
- TGI (NCI-H23 lung): > 100 µM
- TGI (HCC-2998 colon): > 100 µM
- TGI (DLD-1 colon): > 100 µM
- TGI (RXF 393 renal): > 100 µM
- TGI (SR leukemia): > 100 µM
- TGI (M14 melanoma): > 100 µM
- TGI (SK-MEL-28 melanoma): > 100 µM
- TGI (OVCAR-8 ovarian): > 100 µM
- TGI (SK-OV-3 ovarian): > 100 µM
- TGI (OVCAR-4 ovarian): > 100 µM
- TGI (K-562 leukemia): > 100 µM
- TGI (SF-268 CNS): > 100 µM
- TGI (SW-620 colon): > 100 µM
- TGI (CAKI-1 renal): > 100 µM
- TGI (M19-MEL melanoma): > 100 µM
- TGI (UO-31 renal): > 100 µM
- TGI (NCI-H226 lung): > 100 µM
- TGI (SNB-19 CNS): > 100 µM
- TGI (LXFL 529 NSCLC): > 100 µM
- TGI (786-0 renal): > 100 µM
- TGI (COLO 205 colon): > 100 µM
- TGI (U251 CNS): > 100 µM
- TGI (TK-10 renal): > 100 µM
- TGI (KM20L2 colon): > 100 µM
- TGI (SNB-78 CNS): > 100 µM
- TGI (OVCAR-3 ovarian): > 100 µM
- TGI (EKVX NSCLC): > 100 µM
- TGI (NCI-H460 lung): > 100 µM
- TGI (HOP-92 NSCLC): > 100 µM
- TGI (IGROV1 ovarian): > 100 µM
- TGI (SF-539 CNS): > 100 µM
- TGI (HOP-62 NSCLC): > 100 µM
- TGI (SF-295 CNS): > 100 µM
- TGI (RPMI-8226 leukemia): > 100 µM
- TGI (ACHN renal): > 100 µM
- TGI (DMS 114 small cell lung): > 100 µM
- TGI (OVCAR-5 ovarian): > 100 µM
- TGI (A549 NSCLC): > 100 µM
- TGI (HOP-18 NSCLC): > 100 µM
- TGI (SNB-75 CNS): > 100 µM
- TGI (MOLT-4 leukemia): > 100 µM
- TGI (SK-MEL-2 melanoma): > 100 µM
- TGI (UACC-62 melanoma): > 100 µM
- TGI (HL-60(TB) leukemia): > 100 µM
- TGI (LOX IMVI melanoma): > 100 µM
- TGI (DMS 273 small cell lung): > 100 µM
- TGI (CCRF-CEM leukemia): > 100 µM
- TGI (HCT-116 colon): > 100 µM
